Test results from paper PMC6222329 (Molecules : A Journal of Synthetic Chemistry and Natural …, 2018).

Columns and labels:
Type in all cases: biochemical
BChE (Equine) = target: T1, BChE (Equine) (Equus caballus, UniProt P81908); experiment: biochemical
T1 construct: purchased Sigma-Aldrich (Steinheim, Germany)
Experimental: (§1) The assay was performed in two steps.
(§2) All enzymes were obtained from Sigma-Aldrich (Steinheim, Germany). Ellman’s reagent and the substrates were obtained from Fluka (Buchs, Switzerland). The chemicals used to prepare the buffer solution were purchased from Merck (Darmstadt, Germany).
(§3) The enzyme inhibitory activities of the synthesized compounds were investigated by applying Ellman’s method. Enzyme solutions were dissolved in gelatin solution (1%; 2.5 units/mL). […] Then, the reaction was initiated by the addition of Ellman’s reagent 5,5′-Dithiobis(2-nitrobenzoic acid) (DTNB; 20 µL/well, 10 mM) and the substrate (10 µL/well, 75 mM). […] The enzyme solution was processed as a control. All readings were adjusted with blank-reading. All assays were performed in four independent wells. […] Absorbance differences between the two readings were taken, and percentage inhibition rates were calculated according to the following formula: % Inhibition=[(A(C)−A(B))−(A(I)−A(B))]/(A(C)−A(B))×100.
(§4) • Blank (B): the well in which the inhibitor compound and substrate were not added; • Control (C): the well where the inhibitor compound was not added; • A(B): the difference in absorbance reading for the blank; • A(C): the difference in absorbance reading for the control; • A(I): the difference in absorbance reading for the inhibitor compounds.

BChE (Human) = target: T2, BChE (Human) (Homo sapiens, UniProt P06276); experiment: BChE inhibition, Ellman's method
T2 construct: purchased Sigma-Aldrich (Steinheim, Germany)
T2 sequence (P06276 29-602): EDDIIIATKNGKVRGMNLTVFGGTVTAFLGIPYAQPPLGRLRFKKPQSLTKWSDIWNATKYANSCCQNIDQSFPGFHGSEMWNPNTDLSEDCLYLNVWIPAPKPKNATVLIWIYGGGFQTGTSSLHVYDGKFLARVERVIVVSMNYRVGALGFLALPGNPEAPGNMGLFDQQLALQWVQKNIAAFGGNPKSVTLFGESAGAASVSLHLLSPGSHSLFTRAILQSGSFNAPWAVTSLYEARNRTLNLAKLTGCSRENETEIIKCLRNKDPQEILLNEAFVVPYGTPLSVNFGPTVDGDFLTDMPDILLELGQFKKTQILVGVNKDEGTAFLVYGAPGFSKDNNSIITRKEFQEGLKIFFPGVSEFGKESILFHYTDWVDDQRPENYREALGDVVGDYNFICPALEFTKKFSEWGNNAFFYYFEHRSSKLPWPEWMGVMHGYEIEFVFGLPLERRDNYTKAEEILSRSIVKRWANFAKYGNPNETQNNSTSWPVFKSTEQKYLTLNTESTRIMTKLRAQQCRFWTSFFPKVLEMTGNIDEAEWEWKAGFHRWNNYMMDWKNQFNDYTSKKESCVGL
Experimental: as §1, §2, §3, §4

[1] = target: T3, AChE (Electrophorus electricus) (Electrophorus electricus, UniProt O42275); experiment: AChE inhibition, Ellman's method
T3 construct: purchased Sigma-Aldrich (Steinheim, Germany)
T3 sequence (O42275 24-633): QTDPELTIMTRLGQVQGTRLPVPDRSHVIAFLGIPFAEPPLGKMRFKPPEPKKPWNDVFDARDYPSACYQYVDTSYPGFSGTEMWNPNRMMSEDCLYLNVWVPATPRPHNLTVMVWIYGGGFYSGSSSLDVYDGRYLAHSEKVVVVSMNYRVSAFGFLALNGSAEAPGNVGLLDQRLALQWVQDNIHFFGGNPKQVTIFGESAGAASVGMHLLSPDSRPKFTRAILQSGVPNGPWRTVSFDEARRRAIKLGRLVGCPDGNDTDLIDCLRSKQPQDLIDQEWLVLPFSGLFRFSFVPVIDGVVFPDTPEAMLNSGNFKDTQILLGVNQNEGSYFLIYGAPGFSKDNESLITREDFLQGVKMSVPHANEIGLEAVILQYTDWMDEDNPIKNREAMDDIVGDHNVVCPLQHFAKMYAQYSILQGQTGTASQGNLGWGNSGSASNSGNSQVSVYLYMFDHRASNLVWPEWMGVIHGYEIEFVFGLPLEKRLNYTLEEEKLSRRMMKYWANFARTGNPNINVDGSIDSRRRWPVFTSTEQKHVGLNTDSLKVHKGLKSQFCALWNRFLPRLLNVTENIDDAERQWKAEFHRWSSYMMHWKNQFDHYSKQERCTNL
Experimental: as §1, §2, §3, §4

AChE (Human) = target: T4, AChE (Human) (Homo sapiens, UniProt P22303); experiment: AChE inhibition, Ellman's method
T4 construct: purchased Sigma-Aldrich (Steinheim, Germany)
T4 sequence (P22303 32-614): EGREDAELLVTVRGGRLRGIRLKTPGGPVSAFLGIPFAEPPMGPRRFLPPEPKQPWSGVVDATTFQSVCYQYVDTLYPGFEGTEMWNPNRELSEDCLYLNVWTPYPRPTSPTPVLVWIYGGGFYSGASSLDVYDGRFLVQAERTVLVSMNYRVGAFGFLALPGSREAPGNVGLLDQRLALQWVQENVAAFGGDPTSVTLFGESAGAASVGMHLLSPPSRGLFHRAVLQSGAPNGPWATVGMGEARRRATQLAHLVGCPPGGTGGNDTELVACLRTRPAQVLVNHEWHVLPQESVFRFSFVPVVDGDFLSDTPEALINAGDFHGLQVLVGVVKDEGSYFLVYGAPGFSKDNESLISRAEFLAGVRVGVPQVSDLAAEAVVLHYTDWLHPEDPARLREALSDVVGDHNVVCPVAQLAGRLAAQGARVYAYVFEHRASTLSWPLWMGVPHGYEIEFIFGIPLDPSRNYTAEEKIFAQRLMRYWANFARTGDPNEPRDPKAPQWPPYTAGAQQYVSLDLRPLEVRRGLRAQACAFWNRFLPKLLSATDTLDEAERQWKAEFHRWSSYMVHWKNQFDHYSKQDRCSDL
Experimental: as §1, §2, §3, §4

[2] = read-out: BChE (Equine) inhibitory activity (%) ± SD

T1 sequence (P81908 whole entry): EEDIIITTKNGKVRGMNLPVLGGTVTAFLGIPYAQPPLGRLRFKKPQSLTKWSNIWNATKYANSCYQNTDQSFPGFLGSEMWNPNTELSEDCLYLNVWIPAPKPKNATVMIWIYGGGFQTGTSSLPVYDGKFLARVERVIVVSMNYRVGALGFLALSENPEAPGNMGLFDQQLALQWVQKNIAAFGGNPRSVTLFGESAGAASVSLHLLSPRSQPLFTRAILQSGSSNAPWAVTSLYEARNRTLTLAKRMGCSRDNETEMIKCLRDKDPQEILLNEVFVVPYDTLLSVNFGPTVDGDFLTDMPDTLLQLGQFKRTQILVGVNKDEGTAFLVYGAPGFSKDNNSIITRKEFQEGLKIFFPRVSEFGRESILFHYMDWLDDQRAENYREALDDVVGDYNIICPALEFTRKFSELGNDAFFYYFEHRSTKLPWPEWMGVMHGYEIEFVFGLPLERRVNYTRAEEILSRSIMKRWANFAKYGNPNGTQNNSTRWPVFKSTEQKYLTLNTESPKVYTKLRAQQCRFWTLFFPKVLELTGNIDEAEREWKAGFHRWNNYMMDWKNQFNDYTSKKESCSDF

Row | Structure (SMILES) | BChE (Equine) inhibitory activity (%) ± SD (BChE (Equine); 10^-3 M) [%] | BChE (Equine) inhibitory activity (%) ± SD (BChE (Equine); 10^-4 M) | BChE (Human) inhibitory activity (%) ± SD (BChE (Human); 10^-3 M) [%] | BChE (Human) inhibitory activity (%) ± SD (BChE (Human); 10^-4 M) | AChE (Electrophorus electricus) inhibitory activity (%) ± SD ([1]; 10^-3 M) [%] | AChE (Electrophorus electricus) inhibitory activity (%) ± SD ([1]; 10^-4 M) [%] | AChE (Human) inhibitory activity (%) ± SD (AChE (Human); 10^-3 M) [%] | AChE (Human) inhibitory activity (%) ± SD (AChE (Human); 10^-4 M) [%] | also measured
1 | O=C(CSC(=S)N1CCCCC1)Nc1c2ccccc2nc2ccccc12 [Compound 4s, 2-(9-Acridinylamino)-2-oxoethyl piperidine-1-carbodithioate] | 86.72±3.07 | 38.40 ± 0.74% | 84.27±2.16 | 34.99 ± 0.63% | 44.51±0.96 | 32.17 ± 1.23 | 49.05±0.88 | 35.20 ± 1.12 | –
2 | CN1CCN(C(=S)SCC(=O)Nc2c3ccccc3nc3ccccc23)CC1 [Compound 4g, 2-(9-Acridinylamino)-2-oxoethyl 4-methylpiperazine-1-carbodithioate] | 78.11±2.24 | 33.65 ± 0.89% | 80.29±2.40 | 35.97 ± 0.80% | 26.90±0.83 | 10.44 ± 0.66 | 30.85±0.65 | 11.30 ± 0.58 | –
3 | O=C(CSC(=S)N1CCN(c2ccc([N+](=O)[O-])cc2)CC1)Nc1c2ccccc2nc2ccccc12 [Compound 4d, 2-(9-Acridinylamino)-2-oxoethyl 4-(4-nitrophenyl)piperazine-1-carbodithioate] | 77.75±1.79 | 40.19 ± 0.49% | 80.56±1.51 | 45.26 ± 0.60% | 55.62±1.14 | 31.64 ± 0.45 | 50.46±1.09 | 34.71 ± 0.77 | –
4 | O=C(CSC(=S)N1CCC(Cc2ccccc2)CC1)Nc1c2ccccc2nc2ccccc12 [Compound 4u, 2-(9-Acridinylamino)-2-Oxoethyl 4-Benzylpiperidine-1-Carbodithioate] | 32.20±0.59 | 29.50 ± 0.48% | 38.33±0.87 | 31.21 ± 0.50% | 69.30±1.28 | 25.88 ± 0.74 | 65.77±1.17 | 30.71 ± 0.52 | –
5 | O=C(CSC(=S)N1CCN(C(=O)c2ccco2)CC1)Nc1c2ccccc2nc2ccccc12 [Compound 4q, 2-(9-Acridinylamino)-2-oxoethyl 4-(furan-2-carbonyl)piperazine-1-carbodithioate] | 92.00±3.44 | 39.90 ± 1.36% | 95.29±2.16 | 42.48 ± 1.22% | 68.60±1.57 | 16.35 ± 0.39 | 70.29±1.18 | 20.28 ± 0.51 | –
6 | O=C(CSC(=S)N1CCN(c2ccc(F)cc2)CC1)Nc1c2ccccc2nc2ccccc12 [Compound 4p, 2-(9-Acridinylamino)-2-oxoethyl 4-(4-fluorophenyl)piperazine-1-carbodithioate] | 93.27±3.07 | 48.65 ± 1.14% | 92.55±2.51 | 40.71 ± 1.08% | 98.66±2.98 | 48.40 ± 1.18 | 96.90±2.17 | 49.51 ± 1.50 | –
7 | O=C(CSC(=S)N1CCN(c2ncccn2)CC1)Nc1c2ccccc2nc2ccccc12 [Compound 4j, 2-(9-Acridinylamino)-2-oxoethyl 4-(pyrimidin-2-yl)piperazine-1-carbodithioate] | 92.87±2.84 | 27.86 ± 1.07% | 90.51±2.18 | 30.77 ± 1.20% | 69.08±1.67 | 2.88 ± 0.18 | 66.71±1.06 | 5.97 ± 0.22 | –
8 | O=C(CSC(=S)N1CCN(C2CCCCC2)CC1)Nc1c2ccccc2nc2ccccc12 [Compound 4l, 2-(9-Acridin-ylamino)-2-oxoethyl 4-cyclohexylpiperazine-1-carbodithioate] | 84.88±3.34 | 45.88 ± 1.62% | 85.71±2.40 | 42.60 ± 1.53% | 56.11±2.46 | 3.90 ± 0.09 | 58.33±1.39 | 7.29 ± 0.18 | –
9 | COc1ccc(N2CCN(C(=S)SCC(=O)Nc3c4ccccc4nc4ccccc34)CC2)cc1 [Compound 4h, 2-(9-Acridinylamino)-2-oxoethyl 4-(4-methoxyphenyl)piperazine-1-carbodithioate] | 84.02±2.35 | 12.64 ± 0.46% | 80.88±2.05 | 15.58 ± 0.67% | 30.87±1.01 | 15.23 ± 0.69 | 35.77±1.62 | 18.39 ± 0.57 | –
10 | CC1CCCCN1C(=S)SCC(=O)Nc1c2ccccc2nc2ccccc12 (centres unmarked) [Compound 4t, 2-(9-Acridinylamino)-2-oxoethyl 2-methylpiperidine-1-carbodithioate] | 96.06±3.61 | * 55.00 ± 1.74% | 97.28±3.00 | * 54.26 ± 1.27% | 81.22±2.77 | 15.94 ± 0.42 | 85.44±1.72 | 14.51 ± 0.44 | IC50 (BChE (Equine)): 1520 ± 72 nM; BChE (Equine) inhibitory activity (%) ± SD (BChE (Equine); 10^-5 M): 49.04±0.68%; BChE (Equine) inhibitory activity (%) ± SD (BChE (Equine); 10^-6 M): 41.33±0.41%; BChE (Equine) inhibitory activity (%) ± SD (BChE (Equine); 10^-7 M): 35.75±0.53%; BChE (Equine) inhibitory activity (%) ± SD (BChE (Equine); 10^-8 M): 30.66±0.59%; BChE (Equine) inhibitory activity (%) ± SD (BChE (Equine); 10^-9 M): 28.50±0.66%; BChE (Human) inhibitory activity (%) ± SD (BChE (Human); 10^-5 M): 48.19±1.08%; BChE (Human) inhibitory activity (%) ± SD (BChE (Human); 10^-6 M): 38.35±0.88%; BChE (Human) inhibitory activity (%) ± SD (BChE (Human); 10^-7 M): 36.47±0.60%; BChE (Human) inhibitory activity (%) ± SD (BChE (Human); 10^-8 M): 32.40±0.57%; BChE (Human) inhibitory activity (%) ± SD (BChE (Human); 10^-9 M): 29.77±0.41%; IC50 (BChE (Human); read-out: BChE (Human) IC50): 1610 ± 62 nM
11 | COc1cc2c(cc1OC)C(=O)C(CC1CCN(Cc3ccccc3)CC1)C2 (centres unmarked) [Donepezil, reference compound] | – | – | – | – | – | – | – | – | inhibition at 0.001 µM (BChE (Equine); [2]): 9.23 ± 0.08%; inhibition at 0.01 µM (BChE (Equine); [2]): 15.3 ± 0.61%; inhibition at 0.1 µM (BChE (Equine); [2]): 38.1 ± 0.89%; inhibition at 1 µM (BChE (Equine); [2]): 54.3 ± 1.16%; inhibition at 10 µM (BChE (Equine); [2]): 59.2 ± 1.54%; inhibition at 100 µM (BChE (Equine); [2]): 71.7 ± 2.16%; inhibition at 1000 µM (BChE (Equine); [2]): 82.2 ± 2.91%; inhibition at 1000 µM (BChE (Human); 10^-3 M, read-out: BChE (Human) inhibitory activity (%) ± SD): 85.2 ± 2.01%; inhibition at 100 µM (BChE (Human); 10^-4 M, read-out: BChE (Human) inhibitory activity (%) ± SD): 76.5 ± 2.08%; inhibition at 10 µM (BChE (Human); 10^-5 M, read-out: BChE (Human) inhibitory activity (%) ± SD): 60.2 ± 1.37%; inhibition at 1 µM (BChE (Human); 10^-6 M, read-out: BChE (Human) inhibitory activity (%) ± SD): 52.5 ± 1.05%; inhibition at 0.1 µM (BChE (Human); 10^-7 M, read-out: BChE (Human) inhibitory activity (%) ± SD): 32.7 ± 0.95%
